Experimental data: patent US8629285B2, “Imidazole compounds that modulate HSP90 activity” (Synta Pharmaceuticals Corp., priority 2005, dated 2014)

Test system: Her2
Assay: Degradation of Her2 in BT-474 cells (Method 1, SDS-PAGE/immunoblot)
Format: cell-based, Human
Conditions: 0.5 μM, overnight
Description: Human high-Her2 breast carcinoma BT474 (HTB-20), SK-BR-3 (HTB-30) and MCF-7 breast carcinoma (HTB-22) from American Type Culture Collection, VA, USA are grown in Dulbecco's modified Eagle's medium with 4 mM L-glutamine and antibiotics (100 IU/ml penicillin and 100 ug/ml streptomycine; GibcoBRL). To obtain exponential cell growth, cells are trypsinized, counted and seeded at a cell density of 0.5×10^6 cells/ml regularly, every 3 days. All experiments are performed on day 1 after cell passage.
BT-474 cells are treated with 0.5 μM, 2 μM, or 5 μM of 17AAG (a positive control) or 0.5 μM, 2 μM, or 5 μM of a compound of the invention overnight in DMEM medium. After treatment, each cytoplasmic sample is prepared from 1×10^6 cells by incubation of cell lysis buffer (#9803, cell Signaling Technology) on ice for 10 minutes. The resulting supernatant used as the cytosol fractions is dissolved with sample buffer for SDS-PAGE and run on a SDS-PAGE gel, blotted onto a nitrocellulose membrane by using semi-dry transfer. Non-specific binding to nitrocellulose is blocked with 5% skim milk in TBS with 0.5% Tween at room temperature for 1 hour, then probed with anti-Her2/ErB2 mAb (rabbit IgG, #2242, Cell Signaling) and anti-Tubulin (T9026, Sigma) as housekeeping control protein. […]

C=CCNC1=C2C[C@@H](C)C[C@H](OC)[C@H](O)[C@@H](C)/C=C(\C)[C@H](OC(N)=O)[C@@H](OC)/C=C\C=C(/C)C(=O)NC(=CC1=O)C2=O [17AAG]
degradation of Her2: partial degradation
